Source: patent publication US20260284019A1, “CARBOXAMIDE COMPOUNDS AS SUMO ACTIVATING COMPOUNDS FOR TREATMENT OF CARDIOVASCULAR DISEASES” (NOVOHEART INTERNATIONAL LIMITED, priority 2023, published 2026)
Entries after “also recorded” stand apart in the source; their conditions may differ.

Assays:
SUMO E1 ligase protein = molecular target: T1, SUMO E1 ligase protein (Homo sapiens, UniProt Q9UBE0+Q9UBT2); test: In vitro SUMO E1 ATP hydrolysis assay for SUMO E1 ligase activity (AMP produced, luciferase luminescence); format: biochemical; details: racemic mixtures; for SUMO E1 activity (luminescence), ranking among the 11 compounds: 1 μM concentration; for dose-dependent effect in SUMO E1 assays compared with control compound N106: luminescence, FIG. 4B
T1 sequence (Q9UBE0 1-346): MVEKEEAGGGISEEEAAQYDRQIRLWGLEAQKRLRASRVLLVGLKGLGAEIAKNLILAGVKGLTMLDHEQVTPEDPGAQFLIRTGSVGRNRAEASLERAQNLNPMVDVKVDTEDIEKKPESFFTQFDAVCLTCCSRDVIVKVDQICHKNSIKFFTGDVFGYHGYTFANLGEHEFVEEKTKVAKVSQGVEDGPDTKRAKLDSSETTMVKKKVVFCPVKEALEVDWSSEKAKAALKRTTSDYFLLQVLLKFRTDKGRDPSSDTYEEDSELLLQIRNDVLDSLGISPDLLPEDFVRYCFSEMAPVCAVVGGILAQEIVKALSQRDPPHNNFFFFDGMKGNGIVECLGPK
T1 sequence (Q9UBT2 1-640): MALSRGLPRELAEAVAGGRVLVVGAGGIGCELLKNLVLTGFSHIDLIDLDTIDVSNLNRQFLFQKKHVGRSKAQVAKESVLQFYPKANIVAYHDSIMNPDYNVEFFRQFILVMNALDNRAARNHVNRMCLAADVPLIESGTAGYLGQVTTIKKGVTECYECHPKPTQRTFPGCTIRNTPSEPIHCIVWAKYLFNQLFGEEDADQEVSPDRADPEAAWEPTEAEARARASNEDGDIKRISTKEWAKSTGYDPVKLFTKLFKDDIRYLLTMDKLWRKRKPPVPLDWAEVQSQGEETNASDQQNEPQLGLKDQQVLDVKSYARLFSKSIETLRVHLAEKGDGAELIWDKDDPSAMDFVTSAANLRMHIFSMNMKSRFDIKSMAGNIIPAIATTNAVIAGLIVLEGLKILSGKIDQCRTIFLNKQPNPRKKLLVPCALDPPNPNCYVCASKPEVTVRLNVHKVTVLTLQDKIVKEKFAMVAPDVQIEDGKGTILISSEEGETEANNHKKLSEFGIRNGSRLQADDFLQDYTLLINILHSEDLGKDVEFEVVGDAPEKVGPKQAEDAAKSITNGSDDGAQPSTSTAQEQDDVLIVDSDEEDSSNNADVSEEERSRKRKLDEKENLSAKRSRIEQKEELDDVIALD
Experimental: (§1) To investigate the effects of carboxamide compounds as SUMOylation activators, the compounds were subjected to an ATP-based assay of SUMO E1 ligase activity. The racemic mixture of each compound was first tested with the SUMO E1 ligase assay to test for SUMO activation activity. Compounds with no SUMO E1 ligase activity were excluded. For compounds with recorded SUMO E1 ligase activity, their four pure stereoisomers were tested for SUMO E1 ligase activity by measuring the adenosine monophosphate (AMP) produced from the E1 ligase reaction as described below. Each pure stereoisomer was also subjected to functional analysis in engineered cardiac tissues (FIG. 3A). The pure stereoisomers of compounds with SUMO E1 ligase activity were administered to human ventricular cardiac tissue strips that had been subjected to a maturation protocol (see below). […] Stereoisomers that could induce SERCA2a SUMOylation were further tested for their inotropic effects, in hvCTS models of cardiomyopathy and heart failure, by fabrication of hvCTS with cardiomyocytes derived from human induced pluripotent stem cells (i.e., hiPSCs) of patients with cardiomyopathy.
Stereoisomers of the test compounds were incubated with SUMO E1 ligase protein and ATP. E1 ligase activation by the test compound was determined by measuring the AMP produced during the enzymatic reaction after removal of the remaining ATP by ATP adenyl cyclase and converting AMP to ADP by polyphosphate-AMP phosphotransferase. The converted ADP was further converted to ATP using […] and detected through luciferase reaction.

[1] = test system: human ventricular cardiac tissue strips (hvCTS); test: Contractility of matured human ventricular cardiac tissue strips (hvCTS), twitch force from post deflection; format: cell-based; details: for effect on developed force: matured hvCTS with positive force frequency relationship, day 24; for effect on developed force / effect on relaxation time: 1.5 Hz, 10 minutes after each dose
From the text: FIG. 5 discloses the dose-dependent effects of stereoisomers of Compounds 6 on developed force in human cardiac tissue strips that were subjected to maturation protocol (see description below in the section entitled “Maturation of hvCTS”) with maturation media and electrical stimulation of 0.5 Hz from day 7-10, 1.0 Hz from day 10-13, 1.5 Hz from day 13-15, 2.0 Hz from day 16-19, 2.5 Hz from day 19-22 and 3.0 from day 22-24. Contractile data were collected at day 24 post-hvCTS fabrication. Developed forces were measured at 1.5 Hz, 10 minutes after administration of each dose of each stereoisomer. Only hvCTSs with positive force frequency relationships (+FFRs) were tested.
Contractile data were collected at day 24 post-hvCTS fabrication. Developed forces were measured at 1.5 Hz, 10 minutes after administration of each dose of the stereoisomer. Only hvCTSs with positive force frequency relationships (+FFRs) were tested.
as §1
The effects of compounds on cardiac muscle function as evaluated by the Novoheart hvCTS assay are derived from tracings of twitch force versus time. The twitch force may be calculated from measurements of end-post deflection based on a published beam-bending equation as previously described.^29, 30 The twitch force tracings are then analyzed from each “heartbeat” of the tissue, and averaged over multiple beats to extract metrics related to the beat rate frequency and beat rate variability, the passive and active tissue forces, and the contraction and relaxation kinetics, as detailed previously in the field^29-32, and briefly described as follows:
For each beat, the “passive (or diastolic) force” is the minimum value of the twitch force; the “active (or systolic) force” is the maximum value of the twitch force; and the “contractile (or developed) force” is the difference between the systolic and diastolic forces.
“Contractile kinetics”, in some aspects, are analyzed by examining the twitch force tracing during the increase from the diastolic minimum to the systolic maximum portion of the curve, and these can include the duration of rise time from diastolic to systolic force and related metrics (e.g. duration of rise time from 5% maximum to 95% maximum force, and the like), the area under the curve of rise time from minimum to maximum force, the maximum rate of change of force versus time during contraction (max+dF/dt), and other related metrics. […]

[2] = cited from earlier work

Q: What does the source list for `CC(NC(=O)C1CC(=O)N(c2ccc(C(=O)c3ccccc3)cc2)C1)c1cnn2ccccc12` (mixture of isomers) [Compound 6, 1-(4-benzoylphenyl)-5-oxo-N-(1-(pyrazolo[1,5-a]pyridin-3-yl)ethyl) pyrrolidine-3-carboxamide]?
A: SUMO E1 activity (luminescence), ranking among the 11 compounds (SUMO E1 ligase protein): largest effects; also recorded: highest; dose-dependent effect in SUMO E1 assays compared with control compound N106 (SUMO E1 ligase protein): larger effects than the control compound N106

Q: With `CC(NC(=O)C1CC(=O)N(c2cccnc2)C1)c1cnn2ccccc12` (mixture of isomers) [Compound 9, 5-oxo-N-(1-(pyrazolo[1,5-a]pyridin-3-yl)ethyl)-1-(pyridin-3-yl) pyrrolidine-3-carboxamide] as the molecule, how does the “SUMO E1 activity (luminescence), ranking among the 11 compounds” value (SUMO E1 ligase protein) read?
A: largest effects; also recorded: highest

Q: And the “dose-dependent effect in SUMO E1 assays compared with control compound N106” value (SUMO E1 ligase protein)?
A: larger effects than the control compound N106

Q: For `CC(NC(=O)C1CC(=O)N(c2cnc3ccccc3c2)C1)c1cnn2ccccc12` (mixture of isomers) [Compound 11, 5-oxo-N-(1-(pyrazolo[1,5-a]pyridin-3-yl)ethyl)-1-(quinolin-3-yl) pyrrolidine-3-carboxamide], which “SUMO E1 activity (luminescence), ranking among the 11 compounds” value (SUMO E1 ligase protein) is on record?
A: largest effects; also recorded: highest

Q: Which “concentration at which the increase in developed force peaked” value ([1]; matured hvCTS) does the source give for `C[C@@H](NC(=O)[C@@H]1CC(=O)N(c2ccc(C(=O)c3ccccc3)cc2)C1)c1cnn2ccccc12` [Compound 6-1, 1-(4-benzoylphenyl)-(R)-5-oxo-N—((R)-1-(pyrazolo[1,5-a]pyridin-3-yl)ethyl) pyrrolidine-3-carboxamide] here?
A: 1 µM

Q: What about the “contractility (overall conclusion)” value ([1]; matured hvCTS) of the same molecule?
A: improved

Q: What about the “effect on contraction time” value ([1]; matured hvCTS) of the same molecule?
A: did not show any significant difference

Q: And the “effect on passive tension” value ([1]; matured hvCTS)?
A: did not show any significant difference

Q: And the “effect on developed force” value [1]?
A: positive inotropic effects; also recorded: concentration-dependent increase

Q: What about the “effect on relaxation time” value ([1]; matured hvCTS) of the same molecule?
A: did not show any significant difference

Q: Which “concentration at which the increase in developed force peaked” value ([1]; matured hvCTS) does the source give for `C[C@H](NC(=O)[C@H]1CC(=O)N(c2ccc(C(=O)c3ccccc3)cc2)C1)c1cnn2ccccc12` [Compound 6-2, 1-(4-benzoylphenyl)-(S)-5-oxo-N—((S)-1-(pyrazolo[1,5-a]pyridin-3-yl)ethyl) pyrrolidine-3-carboxamide] here?
A: 1 µM

Q: And the “contractility (overall conclusion)” value ([1]; matured hvCTS)?
A: improved

Q: And the “effect on contraction time” value ([1]; matured hvCTS)?
A: did not show any significant difference

Q: And the “effect on passive tension” value ([1]; matured hvCTS)?
A: did not show any significant difference

Q: And the “effect on developed force” value [1]?
A: positive inotropic effects; also recorded: concentration-dependent increase

Q: And the “effect on relaxation time” value ([1]; matured hvCTS)?
A: did not show any significant difference

Q: With `C[C@@H](NC(=O)[C@@H]1CC(=O)N(c2cccnc2)C1)c1cnn2ccccc12` [Compound 9-1, (R)-5-oxo-N—((R)-1-(pyrazolo[1,5-a]pyridin-3-yl)ethyl)-1-(pyridin-3-yl) pyrrolidine-3-carboxamide] as the molecule, how does the “effect on relaxation time” value ([1]; matured hvCTS) read?
A: decrease in relaxation time that was dose dependent

Q: With `C[C@H](NC(=O)[C@H]1CC(=O)N(c2cccnc2)C1)c1cnn2ccccc12` [Compound 9-2, (S)-5-oxo-N—((S)-1-(pyrazolo[1,5-a]pyridin-3-yl)ethyl)-1-(pyridin-3-yl) pyrrolidine-3-carboxamide] as the molecule, how does the “effect on relaxation time” value ([1]; matured hvCTS) read?
A: decrease in relaxation time that was dose dependent

Q: For `C[C@H](NC(=O)[C@@H]1CC(=O)N(c2cccnc2)C1)c1cnn2ccccc12` [Compound 9-3, (R)-5-oxo-N—((S)-1-(pyrazolo[1,5-a]pyridin-3-yl)ethyl)-1-(pyridin-3-yl) pyrrolidine-3-carboxamide], which “contractile kinetics (overall conclusion)” value ([1]; matured hvCTS) is on record?
A: improved

Q: And the “effect on relaxation time” value ([1]; matured hvCTS)?
A: decrease in relaxation time that was dose dependent

Q: What about the “decrease in relaxation time” value ([1]; matured hvCTS, at 10 μM) of the same molecule?
A: 15%

Q: For `C[C@@H](NC(=O)[C@H]1CC(=O)N(c2cccnc2)C1)c1cnn2ccccc12` [Compound 9-4, (S)-5-oxo-N—((R)-1-(pyrazolo[1,5-a]pyridin-3-yl)ethyl)-1-(pyridin-3-yl) pyrrolidine-3-carboxamide], which inhibition at 1 µM ([1]; Homo sapiens, 10 min, matured hvCTS, at 1 μM, read-out: maximum decrease in developed force) is on record?
A: 10%

Q: What about the “effect on developed force” value [1] of the same molecule?
A: small but significant dose-dependent decrease

Q: And the “effect on relaxation time” value ([1]; matured hvCTS)?
A: decrease in relaxation time that was dose dependent

Q: For `COc1ccc(-c2nnc(Nc3nc4c(OC)cccc4s3)o2)cc1` [Compound N106, N-(4-methoxybenzo[d]thiazol-2-yl)-5-(4-methoxyphenyl)-1,3,4-oxadiazol-2-amine], which half-life in vivo [2] is on record?
A: too short
